Some test systems named below: NCI-H226 lung; DU-145 prostate; SF-295 CNS; COLO 205 colon; SK-MEL-5 melanoma; OVCAR-8 ovarian; CCRF-CEM leukemia; EKVX NSCLC; HT29 colon; BT-549 breast.
Common to all, as to test: NCI tumour cell line growth inhibition, 48 h

Several values for one entry are separate records, joined by “and”; a condition that tells them apart may be missing. Identical values can stand only once.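 Five concentrations, 48 hours, 96-well plates. GI50 is the concentration that inhibits growth by half. The concentration for full growth arrest is given as TGI.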

As for `COc1cc2cc(Oc3cccc(NC(=O)Nc4cc(C(F)(F)F)cc(C(F)(F)F)c4)c3)c(C)nc2cc1OC`, the GI50 in the test with NCI-H226 lung is 1.8 µM; in the test on DU-145 prostate, 2.38 µM; in the test with SF-295 CNS, 0.481 µM; in the test on COLO 205 colon it was 1.79 µM; with SK-MEL-5 melanoma, 1.62 µM; with OVCAR-8 ovarian, 1.63 µM. The GI50 in the test on CCRF-CEM leukemia is 0.641 µM; in the test on EKVX NSCLC, 1 µM; in the test with HT29 colon, 1.52 µM; in the test on BT-549 breast, 1.75 µM. For the same molecule, the TGI came out at 3.91 µM with NCI-H226 lung; 9.36 µM in the test on DU-145 prostate; 1.94 µM with SF-295 CNS; 3.58 µM in the test with COLO 205 colon; 3.28 µM in the test on SK-MEL-5 melanoma; 4.22 µM with OVCAR-8 ovarian. Besides, the TGI was found to be 3.47 µM in the test on CCRF-CEM leukemia, 2.98 µM with EKVX NSCLC, 3.46 µM in the test on HT29 colon and 3.76 µM with BT-549 breast.
As to `COc1ccc2c(c1)C(=O)c1c-2c(OCCN(C)C)nc2cc(OC)c(OC)cc12`, the GI50 in the test with NCI-H226 lung was 2.95 µM; in the test with DU-145 prostate, 2.93 µM; in the test with SF-295 CNS, 0.0293 µM; with COLO 205 colon, 11.5 µM; in the test with SK-MEL-5 melanoma, 32.1 µM; in the test on OVCAR-8 ovarian it was 1.62 µM. Further, the GI50 in the test with CCRF-CEM leukemia is 0.0714 µM; with EKVX NSCLC, 22.6 µM; with HT29 colon it was 1.76 µM; in the test on BT-549 breast it was 26.5 µM. The TGI with NCI-H226 lung is 22.1 µM; in the test on DU-145 prostate, 34.7 µM; with SF-295 CNS, 0.21 µM; with COLO 205 colon, above 100 µM; in the test on SK-MEL-5 melanoma, above 100 µM; with OVCAR-8 ovarian, above 100 µM. In addition, the TGI was 3.91 µM in the test with CCRF-CEM leukemia, above 100 µM in the test on EKVX NSCLC, 18.1 µM with HT29 colon and above 100 µM with BT-549 breast.
`CCCCCC[C@H]1C(=O)O[C@H](C)[C@H](NC(=O)c2cccc(NC=O)c2OC)C(=O)O[C@@H](C)[C@@H]1OC(=O)CCC` (tested in a mixture with another compound): the GI50 is 14.7 µM in the test on NCI-H226 lung; 11.7 µM in the test with DU-145 prostate; 5.99 µM in the test on SF-295 CNS; 12.6 µM with COLO 205 colon; 3.94 µM in the test on SK-MEL-5 melanoma; 12.1 µM in the test with OVCAR-8 ovarian. The GI50 was 3.81 µM in the test on CCRF-CEM leukemia, 6 µM in the test on EKVX NSCLC, 5.98 µM in the test on HT29 colon and 11.9 µM in the test on BT-549 breast. Further, the TGI in the test on NCI-H226 lung is 39.4 µM; in the test with DU-145 prostate, 30.1 µM; in the test with SF-295 CNS, 20.8 µM; in the test with COLO 205 colon, 26.7 µM; with SK-MEL-5 melanoma, 14.5 µM; with OVCAR-8 ovarian, 33.4 µM. The TGI in the test on CCRF-CEM leukemia was determined as 27.2 µM; with EKVX NSCLC, 24.2 µM; in the test on HT29 colon, 45.6 µM; in the test on BT-549 breast it was 35.5 µM.
As for `NCCCN=c1ccc2c3c1c(O)c1c(O)ccc(=O)c1c3[nH]n2CCNCCO`, the GI50 in the test on NCI-H226 lung was 1.05 µM; in the test on DU-145 prostate, 1 µM; with SF-295 CNS, 1.06 µM; in the test with COLO 205 colon it was 1.61 µM; in the test on SK-MEL-5 melanoma it was 0.706 µM; in the test on OVCAR-8 ovarian it was 3.34 µM and 1.15 µM. The GI50 is 0.583 µM and 0.478 µM with CCRF-CEM leukemia; 6.08 µM and 4.62 µM in the test with EKVX NSCLC; 3.08 µM in the test with HT29 colon. Moreover, the TGI was 7.05 µM and 10.7 µM in the test on NCI-H226 lung; 5.57 µM and 8.3 µM in the test on DU-145 prostate; 7.44 µM and 39.9 µM with SF-295 CNS; 5.91 µM and 6.96 µM in the test on COLO 205 colon; 3.61 µM and 4.11 µM with SK-MEL-5 melanoma; 15.7 µM and 20 µM in the test with OVCAR-8 ovarian. The TGI is 8.77 µM and 28.3 µM in the test on CCRF-CEM leukemia; 17.9 µM and 42 µM with EKVX NSCLC; 11.9 µM and 21.7 µM in the test on HT29 colon; 5.31 µM with BT-549 breast.

Source of the values: PubChem BioAssay (NCI).
